Test results as given in patent publication US5536847A, “4-desoxy-4-epipodophyllotoxin derivative or pharmaceutically acceptable salt thereof” (Taiho Pharmaceutical Co. Ltd., priority 1991, dated 1996).

system: P388 mouse leukemia cell line; test: Cytocidal effect on P388 mouse leukemia cells (crystal violet cytometry); type: cell-based; details: 72 h; P388 mouse leukemia cells, 1×10^3 cells/well, 3 days incubation with compound; read-out: ED50 (concentration causing a 50% decrease in cell count as compared with the control)
Procedure: A 96-well plate was inoculated with 1×10^3 cells/well of P388 mouse leukemia cell line and incubated for 24 hours. The test compound was dissolved in dimethylformamide and the solution was diluted with medium to various concentrations and added to respective wells. The plate was further incubated for 3 days, after which it was fixed with glutaraldehyde and stained with crystal violet for cytometry. The cytocidal effect of each compound was expressed as the concentration causing a 50% decrease in cell count (ED50) as compared with the control.

Row | Compound | IC50 [nM]
1 | COc1cc(C2c3cc4c(cc3C(CCN(C)CCN(C)C)C3COC(=O)C23)OCO4)cc(OC)c1O (stereo not drawn) [Compound 35] | 1
2 | CCN(CC)CCN(C)CCC1c2cc3c(cc2C(c2cc(OC)c(O)c(OC)c2)C2C(=O)OCC12)OCO3 (stereo not drawn) [Compound 47] | 6.3

same assay, conditions: Mus musculus, P388, 72 h, read-out: ED50 (concentration causing a 50% decrease in cell count as compared with the control)

Row | Compound | IC50 [nM]
3 | COc1cc(C2c3cc4c(cc3C(CCN3CCN(C)CC3)C3COC(=O)C23)OCO4)cc(OC)c1O (stereo not drawn) [Compound 34] | 3
4 | COc1cc(C2c3cc4c(cc3C(CC=O)C3COC(=O)C23)OCO4)cc(OC)c1O (stereo not drawn) [Compound 5, 4-desoxy-4'-demethyl-4-formylmethyl-4-epipodophyllotoxin] | 120
5 | COc1cc(C2c3cc4c(cc3C(CCN3CCC(N5CCCCC5)CC3)C3COC(=O)C23)OCO4)cc(OC)c1O (stereo not drawn) [Compound 45] | 3.3
6 | COc1cc(C2c3cc4c(cc3C(CCN(C)N(C)C)C3COC(=O)C23)OCO4)cc(OC)c1O (stereo not drawn) [Compound 33] | 20
7 | COc1cc(C2c3cc4c(cc3C(CCN(C)N3CCN(C)CC3)C3COC(=O)C23)OCO4)cc(OC)c1O (stereo not drawn) [Compound 53] | 4.3
8 | COc1cc(C2c3cc4c(cc3C(CC=O)C3COC(=O)C23)OCO4)cc(OC)c1OC(=O)OCc1ccccc1 (stereo not drawn) [Compound 3, 4-desoxy-4'-demethyl-4'-O-benzyloxycarbonyl-4-formylmethyl-4-epipodophyllotoxin] | 450
9 | COc1cc(C2c3cc4c(cc3C(CCN3CCCCC3)C3COC(=O)C23)OCO4)cc(OC)c1O (stereo not drawn) [Compound 44] | 12
10 | CCCCCCN(C)CCC1c2cc3c(cc2C(c2cc(OC)c(O)c(OC)c2)C2C(=O)OCC12)OCO3 (stereo not drawn) [Compound 38] | 19
11 | COc1cc(C2c3cc4c(cc3C(CCCN(C)C)C3COC(=O)C23)OCO4)cc(OC)c1O (stereo not drawn) [Compound 28, 4-desoxy-4'-demethyl-4-(3-N,N-dimethylamino-1-propyl)-4-epipodophyllotoxin] | 12
12 | COc1cc(C2c3cc4c(cc3C(CCNCCN(C)C)C3COC(=O)C23)OCO4)cc(OC)c1O (stereo not drawn) [Compound 52] | 40
13 | COc1cc(C2c3cc4c(cc3C(CCN(C)CCN3CCCCC3)C3COC(=O)C23)OCO4)cc(OC)c1O (stereo not drawn) [Compound 43] | 4.1

system: not given; test: not given; details: background art statement; cited from earlier work

Row | Compound | serious adverse reactions
14 | COc1cc([C@@H]2c3cc4c(cc3[C@@H](O[C@@H]3O[C@@H]5CO[C@@H](c6cccs6)O[C@H]5[C@H](O)[C@H]3O)[C@H]3COC(=O)[C@H]23)OCO4)cc(OC)c1O [teniposide] | may cause serious adverse reactions including leukopenia, thrombopenia, alopecia, nausea and vomiting
15 | COc1cc([C@@H]2c3cc4c(cc3[C@@H](O[C@@H]3O[C@@H]5CO[C@@H](C)O[C@H]5[C@H](O)[C@H]3O)[C@H]3COC(=O)[C@H]23)OCO4)cc(OC)c1O [etoposide] | may cause serious adverse reactions including leukopenia, thrombopenia, alopecia, nausea and vomiting

system: L1210 mouse leukemia cell line; test: Life-prolonging effect in CDF1 mice intraperitoneally transplanted with L1210 leukemia; type: in vivo; details: 2.5 mg/kg/day i.p., 5 days; L1210, male CDF1 mice; vs vehicle group
Procedure: L1210 mouse leukemia cell line, 1×10^5 cells/mouse, was intraperitoneally transplanted into 7-weeks-old male CDF1 mice (6 per group). The test compound, in the varying amounts shown below in Table 4, was dissolved in physiological saline containing 3.5% of dimethyl sulfoxide and 6.5% of Tween 80 and the solution was intraperitoneally administered for 5 days following the transplantation of cells for a total of 5 times. The percent life-prolonging effect of the compound was determined by comparison with a group given physiological saline containing 3.5% of dimethyl sulfoxide and 6.5% of Tween 80 only.

Row | Compound | Life-prolonging effect [%]
16 | COc1cc(C2c3cc4c(cc3C(CCN3CCC(N5CCCCC5)CC3)C3COC(=O)C23)OCO4)cc(OC)c1O (stereo not drawn) [Compound 45] | 231

same assay, conditions: 5 mg/kg/day i.p., 5 days; L1210, male CDF1 mice; vs vehicle group

Row | Compound | Life-prolonging effect [%]
17 | COc1cc(C2c3cc4c(cc3C(CCN(C)CCN3CCCCC3)C3COC(=O)C23)OCO4)cc(OC)c1O (stereo not drawn) [Compound 43] | 257

same assay, conditions: 10 mg/kg/day i.p., 5 days; L1210, male CDF1 mice; vs vehicle group

Row | Compound | Life-prolonging effect [%]
18 | COc1cc(C2c3cc4c(cc3C(CCN3CCOCC3)C3COC(=O)C23)OCO4)cc(OC)c1O (stereo not drawn) [Compound 36] | 81
